Source: PMC6479099, “Aminoguanidines: New leads for treatment of Giardia duodenalis infection” (International Journal for Parasitology: Drugs and Drug …, 2019)
Converted amounts (≈) assume the structure as drawn. Read-outs that look alike come from different tables or passages of the source.

Experiments:
[1] = system: Giardia duodenalis BAH2c2 strain, assemblage A; assay: Resazurin reduction assay, assemblage A isolate; assay type: cell-based; settings: for MLC (minimum lethal concentration), Assemblage A: concentration at which no metabolism of resazurin was observed; for IC50: Giardia duodenalis, 24 h, read-out: IC50, Assemblage A
Protocol: (§1) G. duodenalis (BAH2c2 and BAH12 strain) was cultivated according to the method of Clark and Diamond in Keister's modified TYI-S-33 medium, supplemented with heat inactivated foetal bovine serum (Hyclone™, Thermo Fisher Scientific, Scoresby, Victoria, Australia) at 37 °C in plastic 9 mL screw-capped test tubes (nunc, Thermo Fisher Scientific, Scoresby, Victoria, Australia). Subcultures were performed once a confluent monolayer was observed, approximately 2–3 times per week ([Clark and Diamond, 2002]).
(§2) The in-vitro compound efficacy was determined using a resazurin reduction assay as previously described ([Benere et al., 2007]). The media of confluent cultures was replaced with fresh media and the cultures were placed on ice for 40 min to detach trophozoites. Trophozoites were enumerated using a haemocytometer and 50 000 trophozoites were added to each test well of a 96 well plate. Doubling or tripling dilutions of the test compounds were added to wells beginning at 25 or 50 μM compound concentration (previously prepared in DMSO). Metronidazole and DMSO (vehicle only) were used as controls. Plates were incubated under anaerobic conditions, using anaerobic gas generating sachets, (AnaeroGen, Thermo Fisher Scientific, Scoresby, Victoria, Australia) for 24 h at 37 °C. After incubation the media was removed and replaced with an equal volume of warm PBS. Resazurin (Alamarblue, Thermo Fisher Scientific, Scoresby, Victoria, Australia) was then added at 10% of the total volume of the wells. Plates were further incubated (1.5 h) for colour development and absorbance read at 570 nm and 630 nm. The percentage resazurin reduction was then calculated using the following formula:((εoxi630 x A570) – (εoxi570 x A630))/((εred570 x C630)-([…])) x 100Where: εoxi630 = 34798, εoxi570 = 80586, A570 = absorbance at 570 nm, A630 = absorbance at 630 nm, εred570 = 155677, εred630 = 5494, C630 = absorbance of negative control well at 630 nm and C570 = absorbance of negative control well at 570 nm.
(§3) For the resazurin reduction assay the mean and standard error of the mean were determined with each assay completed in triplicate. The IC50 was calculated using the log (inhibitor) vs. normalised response – variable slope function in Graphpad Prism. For the adherence assay mean and standard error of the mean were calculated and data analysed using an unpaired t-test, relative to untreated control.
(§4) The IC50 of each compound was determined using a resazurin reduction assay, which measures the metabolic activity of cells, using the log (inhibitor) vs. normalised response – variable slope function in Graphpad Prism. The compounds were tested against an assemblage A (BAH2c2, 24 h) and an assemblage B (BAH12, 24 h) isolate (Table 1). […] The effect of the compounds on the proliferation of Giardia trophozoites (BAH2c2) was also determined.
Absorbance was measured (630 and 570 nm), percent reduction of resazurin calculated and data presented as a percentage of the growth control. Treatment groups are: square - metronidazole; triangle –NCL 099; diamond - robenidine; and circle - NCL 062. Error ± SEM, n = 3. Data represents a typical experiment. Note the break in the x-axis indicates a change in the scale of drug concentration.

[2] = system: Giardia trophozoites (BAH2c2); assay: Proliferation of Giardia trophozoites (resazurin, 96 h); assay type: cell-based, Giardia duodenalis; settings: read-out: IC50prol, Assemblage A (50% inhibition in the proliferation assay)
Protocol: The effect of the compounds on the proliferation of Giardia trophozoites was determined following the protocol outlined above, with the following modifications. The number of trophozoites was decreased to 1000 per well and the cells were incubated in the presence of each compound for 96 h at 37 °C.
as §4

giardiasis = system: giardiasis; set-up: method as in Wright et al., 2003; settings: ref Wright et al., 2003; cited from earlier work
[3] = system: Giardia duodenalis BAH12, assemblage B; assay: Resazurin reduction assay, assemblage B isolate; assay type: cell-based; settings: BAH12, 24 h; for IC50: Giardia duodenalis, resazurin metabolic assay
Protocol: as §1, §2, §3, §4

[4] = system: Giardia duodenalis trophozoites; assay: Modified adherence assay; assay type: cell-based; settings: 4 μM, 5 h exposure
Protocol: (§5) A second screening method, based on counting adherent trophozoites, was developed and used to validate the primary screen method, modified from earlier adherence assay protocols ([Crouch et al., 1986]). The assay was prepared in 24 well plates with plastic coverslips placed in the bottom. Trophozoites were prepared as above by placing on ice and ∼5 × 10^5 cells/mL were added to each well. Drugs prepared in DMSO were added at the required concentration, with the DMSO concentration never exceeding 1%. Assay plates were incubated for 5 h at 37 °C under anaerobic conditions, the media removed and cells adhering to the coverslips were fixed with glutaraldehyde or methanol. Once the coverslips were dry, cells were stained with a Romanowsky stain variant (Rapid stain), fixed to a glass slide and imaged at 10x or 100x magnification. Images (10x magnification) were processed with DotCount v1.2 software (http://reuter.mit.edu/, 2008–2012 ^© Martin Reuter) to count the number of cells present and data analysed using GraphPad Prism version 6.00 for Windows, GraphPad Software, La Jolla California USA, www.graphpad.com. Images (100x magnification) were assessed for obvious morphological changes.
The results for the in vitro drug efficacy studies were analysed using GraphPad Prism version 6.00 for Windows, GraphPad Software, La Jolla California USA, www.graphpad.com. For the resazurin reduction assay the mean and standard error of the mean were determined with each assay completed in triplicate. The IC50 was calculated using the log (inhibitor) vs. normalised response – variable slope function in Graphpad Prism. For the adherence assay mean and standard error of the mean were calculated and data analysed using an unpaired t-test, relative to untreated control.
Fig. 3 Inhibition of adherence of Giardia duodenalis by metronidazole (Mz), robenidine, NCL 062 and NCL 099. Cells were exposed to the compounds for 5 h before staining. Stained cells were imaged at 10x magnification and counted using DotCount™ software. Each assay was completed in triplicate and 5 images taken per sample. Top. Number of adherent trophozoites after exposure to 4 μM of each compound for 5 h; Bottom. An example of the Dotcount software identifying trophozoites at higher magnification. Left: stained trophozoites, Right: highlighted trophozoites identified by the Dotcount software. Each highlighted cell is counted individually. Error ± SEM. * p-value <0.05, ** p-value <0.0001.

[5] = system: G. duodenalis trophozoites; assay: Giardia recovery assay; assay type: cell-based, Giardia duodenalis; settings: 5 h at 5x the IC50, counts at 24 and 48 h post exposure
Protocol: G. duodenalis trophozoites were harvested on ice as outlined above and 5 × 10^5 cells/mL were added to 1.5 mL centrifuge tubes. […] After exposure cells were collected by placing tubes on ice for 40 min followed by centrifugation at 900×g for 5 min. The supernatant was removed and cells were resuspended in 8 mL of fresh media (in a 9 mL culture tube). The number of trophozoites was counted using a haemocytometer and cells were incubated for 48 h with cell numbers being determined at 24 and 48 h.
Fig. 7 Recovery assay of Giardia duodenalis exposed to robenidine and metronidazole. Giardia trophozoites were exposed to robenidine or metronidazole for 5 h at 5x the IC50. Key: closed circle – growth control, triangle – metronidazole, square – robenidine, open circle – NCL 062, diamond – NCL 099. Cell numbers were determined at 24 and 48 h post exposure. Error ± SD.

Giardia trophozoites = assay: Morphology of stained trophozoites at 100x magnification; assay type: cell-based, Giardia duodenalis
Protocol: as §5
Fig. 4 Morphological effect of Robenidine and NCL 099 on Giardia trophozoites. Giardia trophozoites were exposed to each compound for 24 h before fixation with glutaraldehyde and staining following the Diff quik protocol. A-control cells, B – cells treated with metronidazole (IC50, 2 μM), C- robendine treated cells (IC50, 2 μM), D – NCL 099 treated cells (IC50, 3 μM), E − NCL 099 treated cells (2 x IC50).

[6] = In vitro cytotoxicity, murine macrophage cells; settings: mouse, RAW 264.7 murine macrophage cells
AT region of DNA = system: AT region of DNA; set-up: method as in Nguyen et al., 2002; settings: ref Nguyen et al., 2002; cited from earlier work
[7] = system: Giardia duodenalis BAH2c2 strain, assemblage A; assay: Resazurin reduction assay, assemblage A isolate; assay type: cell-based
[8] = BAH2c2, 24 h, resazurin metabolic assay
[9] = BAH2c2, 1000 trophozoites per well

Row | Structure (SMILES) | MLC (minimum lethal concentration), Assemblage A ([1]; BAH2c2, 24 h) [µM] | IC50 [1, 8] [µM] | MLC, Assemblage B [3] [µM] | IC50 [3] [µM] | IC50 [2, 9] [µM] | Effect on adherence of trophozoites [4] | Recovery of trophozoites after short-term exposure [5] | GI50 [6] [µM] | Treatment success rate (giardiasis) | further results
1 | CCCSc1ccc2nc(NC(=O)OC)[nH]c2c1 [Albendazole] | 0.02 to 0.07 |  |  |  |  |  |  |  |  | IC50 [1]: < 0.02 µM; IC50 [2]: 0.8 ± 0.7 µM; Reported efficacy (giardiasis): 62–95%
2 | CC(C)(C)c1ccc(/C=N/NC(=N)N/N=C/c2ccc(C(C)(C)C)cc2)cc1.Cl [NCL 099, N′,2-bis((E)-4-(tert-butyl)benzylidene)hydrazine-1-carboximidhydrazide hydrochloride] | 8.3 | 3 ± 0.3 | 5.5 | 3.3 ± 0.2 | 11.1 ± 0.8 | significantly affected adherence of trophozoites at 4 μM, but did not completely inhibit adherence | able to recover after short-term exposure but growth was slower | 7.3 |  | Morphological effect on stained trophozoites at 2 x the IC50 (Giardia trophozoites; 2 x IC50, 100 x magnification): disintegration of the cell membrane; Morphological effect on stained trophozoites at the IC50 (Giardia trophozoites; at IC50, 100 x magnification): decrease in the membrane stain intensity
3 | Cl.Cl.Cl.N=C(N)c1cccc(/C=N/N=C(\N)N/N=C/c2cccc(C(=N)N)c2)c1 [CGP 40215A] |  |  |  |  |  |  |  |  |  | Binding to the AT region of DNA (AT region of DNA): strong bond
4 | CCS(=O)(=O)CCn1c([N+](=O)[O-])cnc1C [tinidazole] |  |  |  |  |  |  |  |  | 80–90% | 
5 | C/C(=N\NC(=N)N/N=C(\C)c1ccc(Cl)cc1)c1ccc(Cl)cc1.Cl [NCL 062, (E)-N'-((E)-1-(4-chlorophenyl)ethylidene)-2-(1-(4-chlorophenyl)ethylidene)hydrazine-1-carboximidhydrazide hydrochloride] | 0.9 | 0.8 ± 0.6 | 3.1 | 1.8 ± 0.0008 | 2 ± 1.3 | complete inhibition of adherence | unable to recover | 4 |  | 
6 | Cc1ncc([N+](=O)[O-])n1CCO [Metronidazole] | 2.8 (≈ 0.479 µg/mL) | 2 ± 1 | 16.6 (≈ 2.84 µg/mL) | 3.8 ± 0.5 | 1.7 ± 2 | no significant effect on cell adherence | did not have any permanent effects |  | 80–90% | Time required to exhibit inhibitory activity [7]: 24 h
